Source: patent US7998985B2, “1,5-diphenyl-3-pyridinylamino-1,5-dihydropyrrolidin-2-one as CB1 receptor modulator” (Eli Lilly and Company, priority 2006, dated 2011)

Legend:
human CB2 receptor = target: T1, human CB2 receptor (Homo sapiens, UniProt P34972); assay: Antibody-capture SPA GTP-γ-35S binding, antagonist/inverse agonist mode, human CB2 (Sf9 membranes); type: biochemical; details: Table 3
T1 construct: purchased Applied Cell Sciences, Gaithersburg, Md; PerkinElmer Life Sciences, Boston, Mass; host or cells: Sf9 insect cells (recombinant expression), membranes

NIH male Swiss mice = assay: Forced Swim Test (FST); type: in vivo, mouse; details: 90 minute pre-treatment, lowest dose with significant decrease in immobility time
Protocol: Receive NIH male Swiss mice (Harlan Sprague-Dawley, weight 20-25 g) 7 to 10 days prior to testing. House 12 mice per cage. Test only animals that weigh 25-30 g. On the day of testing, bring animals to the testing room at least 1 hour prior to dosing. When dosing starts, dose at 6-8 minute intervals between each dose with each mouse receiving either Administer vehicle (1% CMC, 0.5% SLS, 0.08% povidone, 0.05% antifoam) or Example 2, p.o. Next, place mice in a clean cage (4 mice per cage). After 90 minutes, start the test following a 90 minute pre-treatment with Example 2 or vehicle.
Mice FST: Place NIH-Swiss mice in clear plastic cylinders (diameter: 10 cm; height: 25 cm) filled to 6 cm with 22-25° C. water for six minutes. Record the duration of immobility during the last 4 minutes of the six-minute trial. A mouse is regarded as immobile when floating motionless or making only those movements necessary to keep its head above the water. Analyze data by ANOVA with a post-hoc Dunnett's test (alpha=0.05; JMP). Record the minimum effective dose (MED) as the lowest dose of compound at which statistically significant decrease in immobility time is observed versus a vehicle control.

Bioavailability, rat = details: in vivo
Text: (§1) Methods for accessing bioavailability are well appreciated in the art. One such reference is Medicinal Research Reviews Vol. 21 No. 5 382-396 (2001).

Bioavailability, dog = details: in vivo
Text: as §1

hCB1 = hCB1 (Homo sapiens, UniProt P21554); assay: hCB1 SPA GTPγ35S Sf9 membranes, antagonist mode (Table 3); type: biochemical; design: purchased Applied Cell Sciences, Gaithersburg, Md; PerkinElmer Life Sciences, Boston, Mass; host or cells: Sf9 insect cells (recombinant expression), membranes; details: hCB1 SPA GTPγ35S Sf9 Mem 22.7 ug protein/well Antagonist; read-out: Inverse Agonist Potency CB1 (Kb)
[1] = system: alcohol-preferring (P) rats; assay: 12-hour ethanol consumption in alcohol-preferring rats (P rats); type: in vivo, rat; details: female P rats, 15% (v/v) ethanol, continuous free access; Example 2 given p.o.
Text: Evaluate Example 2 for its ability to reduce consumption of ethanol in rats selectively bred for high oral ethanol intake (P rats). In addition, study the effects of Example 2 under conditions in which effects of the compound on motivation or the control of behavior by ethanol could be assessed.
Methods: Study the effects of Example 2 on female, alcohol-preferring (P) rats on alcohol consumption under a continuous free access paradigm. For comparative purposes test the standard opioid antagonist naltrexone. Monitor voluntary consumption of 15% (v/v) ethanol. Suspend Example 2 in vehicle (1% CMC, 0.5% SLS, 0.08% povidone, 0.05% Dow Corning antifoam 1510 US) and give p.o. 3 hours prior to the onset of the dark cycle. In addition, measure locomotor activity via infrared sensor.

T1 sequence (P34972 whole entry): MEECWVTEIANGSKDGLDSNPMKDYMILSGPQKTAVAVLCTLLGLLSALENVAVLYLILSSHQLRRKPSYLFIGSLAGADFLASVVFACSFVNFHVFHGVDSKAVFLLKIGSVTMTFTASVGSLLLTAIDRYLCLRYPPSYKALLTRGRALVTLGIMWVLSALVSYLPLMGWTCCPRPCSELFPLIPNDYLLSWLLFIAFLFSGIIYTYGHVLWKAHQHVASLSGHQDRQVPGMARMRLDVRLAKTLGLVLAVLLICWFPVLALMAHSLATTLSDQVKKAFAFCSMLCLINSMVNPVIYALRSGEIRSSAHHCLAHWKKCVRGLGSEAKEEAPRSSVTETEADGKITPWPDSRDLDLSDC
Sequence of hCB1 (P21554 whole entry): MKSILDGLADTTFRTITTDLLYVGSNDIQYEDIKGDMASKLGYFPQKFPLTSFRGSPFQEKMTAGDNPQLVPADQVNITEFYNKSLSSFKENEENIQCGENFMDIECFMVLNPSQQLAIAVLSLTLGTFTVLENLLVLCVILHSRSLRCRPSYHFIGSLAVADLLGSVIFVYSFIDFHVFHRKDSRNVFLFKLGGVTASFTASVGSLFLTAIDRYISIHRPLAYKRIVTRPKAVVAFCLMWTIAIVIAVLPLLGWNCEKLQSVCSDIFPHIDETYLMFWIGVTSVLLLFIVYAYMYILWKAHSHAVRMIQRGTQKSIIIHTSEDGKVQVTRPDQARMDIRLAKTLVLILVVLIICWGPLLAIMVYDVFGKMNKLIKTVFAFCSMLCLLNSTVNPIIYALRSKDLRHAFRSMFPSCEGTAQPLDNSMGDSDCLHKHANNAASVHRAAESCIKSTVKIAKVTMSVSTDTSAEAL

Inverse Agonist Potency CB2 (Kb, nM) (human CB2 receptor)	Kb (hCB1)	Structure (SMILES)	also measured
No measurable activity	–	CC(C)(N[C@@H]1C[C@H](c2cccc(OC(F)(F)F)c2)N(c2ccc(C(F)(F)F)cc2)C1=O)c1ccc(C(F)(F)F)nc1.Cc1ccc(S(=O)(=O)O)cc1 [drawing 21]	FST (MED mg/kg p.o.) (NIH male Swiss mice): 1 mg/kg; bioavailability (Bioavailability, rat): 65%; bioavailability (Bioavailability, dog): 60%
No measurable activity	8.8 nM	CC(C)(N[C@H]1C[C@H](c2cccc(OC(F)(F)F)c2)N(c2ccc(C(F)(F)F)cc2)C1=O)c1ccc(C(F)(F)F)nc1.Cl [drawing 24]	–
No measurable activity	–	CC(C)(N[C@@H]1C[C@H](c2cccc(OC(F)(F)F)c2)N(c2ccc(C(F)(F)F)cc2)C1=O)c1ccc(C(F)(F)F)nc1.Cl [drawing 22]	–
–	–	O=C1CC[C@@]2(O)[C@H]3Cc4ccc(O)c5c4[C@@]2(CCN3CC2CC2)[C@H]1O5 [Naltrexone, naltrexone, reference compound]	consumption of ethanol [1]: at higher doses, was also able to reduce ethanol intake
No measurable activity	3 nM	CC(C)(N[C@H]1C[C@H](c2cccc(OC(F)(F)F)c2)N(c2ccc(C(F)(F)F)cc2)C1=O)c1ccc(C(F)(F)F)nc1.Cc1ccc(S(=O)(=O)O)cc1 [drawing 23]	–
